Values after ≈ are worked out from the molar mass of the structure shown. Read-outs that look alike come from different tables or passages of the source.
Legend:
E. coli (Gram−) = test: Antimicrobial activity, MIC on Müeller Hinton Agar; format: cell-based, Escherichia coli; settings: for MIC: Escherichia coli, read-out: MIC (minimal inhibitory concentration)
Experimental: (§1) The antimicrobial activity of studied compounds was tested against Escherichia coli, Bacillus subtilis, Staphylococcus epidermidis, Streptococcus pyogenes and antifungal activities against Candida sp. The microorganisms used in the experiment were obtained from the American Type Culture Collection-ATCC. Antimicrobial activity was measured as a minimal inhibitory concentration (MIC) with […] Hinton Agar (MHA). Serial two-fold dilutions of chemicals, ranging from 5000, 2500, 1250, 625 to 312, μg/mL were prepared. After the inoculation of microorganisms on MHA plates with certain tested chemical concentrations, the plates were incubated at 37 °C for bacteria and at 30 °C for Candida sp. for 24 and 48 h, respectively. Plates containing sterile water were used as controls. Minimum three repetitions were run for each assay. Ampicillin and kanamycin were used as a reference antibiotics.

[1] = system: multi-drug resistant Staphylococcus aureus; set-up: method as in PMID 26528244; settings: via inhibition of the activity of sortase A; cited from earlier work
[2] = system: Stenotrophomonas maltophilia, Bacillus careus, Enterococcus faecalis, Bacillus subtilis, Streptococcus pneumoniae; set-up: method as in PMID 23509719, PMID 21483731, PMID 22417510; settings: range over listed bacteria; cited from earlier work
[3] = system: E. coli, Bacillus sp., Staphylococcus sp., Streptococcus pyogenes; test: Antibacterial activity, MIC as summarised in the abstract; format: cell-based; settings: summary over tested bacteria (abstract)
Experimental: as §1

Candida sp. = test: Antifungal activity, MIC on Müeller Hinton Agar; format: cell-based; settings: for MIC: Candida, read-out: MIC (minimal inhibitory concentration)
Experimental: as §1

[4] = system: Staphylococcus Epidermidis (Gram+); test: Antimicrobial activity, MIC on Müeller Hinton Agar; format: cell-based; settings: for MIC: read-out: MIC (minimal inhibitory concentration)
Experimental: as §1

[5] = system: Streptococcus Pyogenes (Gram+); test: Antimicrobial activity, MIC on Müeller Hinton Agar; format: cell-based; settings: for MIC: read-out: MIC (minimal inhibitory concentration)
Experimental: as §1

Bacillus sp. (Gram+) = test: Antimicrobial activity, MIC on Müeller Hinton Agar; format: cell-based, Bacillus subtilis; settings: for MIC: read-out: MIC (minimal inhibitory concentration)
Experimental: as §1

Hepatitis B virus = system: Hepatitis B virus; set-up: method as in PMID 19463857; settings: cited from earlier work
[6] = FRAP (ferric reducing antioxidant power) assay; settings: Fe2+ equivalents
Experimental: Ferric reducing antioxidant activity was determined in FRAP assay. In order to prepare the FRAP reagent the following reagents: 0.3 M acetate buffer (pH 3.6), 10 mM TPTZ (in 40 mM HCl) and 20 mM FeCl3·6H2O (in water) were mixed in a volumetric ratio 10:1:1 directly before analyses. Then, the FRAP reagent (3 mL) was mixed with the tested substance (0.4 mL; final concentrations C = 2.5 and 5.0 μM). The absorbance was measured at 594 nm against blank (3 mL of FRAP and 0.4 mL of methanol) using an Agilent Carry 5000 spectrophotometer (CA, USA). Antioxidant activity was expressed as Fe^2+ equivalents [μM] using the calibration curve prepared over the range of 1000–20 μM concentration of FeSO4.

[7] = DPPH radical scavenging assay; settings: methanolic solution, 40 μM DPPH, 1 h, 23 °C, 516 nm
Experimental: Particular volumes of chlorogenic acid and chlorogenate solutions were added into the test tubes and diluted with methanol to obtain a series of solutions at the concentrations 10–0.1 μM (final volume 1 mL). Then, 2 mL of DPPH was added to each tube, vortexed and incubated in the darkness for 1 h at 23 °C. […] The absorbance of the mixture was measured at 516 nm against methanol as the blank using Agilent Carry 5000 spectrophotometer. The control sample—2 mL of DPPH solution and 1 mL of methanol. […] Then, the concentration of the tested substances was plotted against the % inhibition and the IC50 values were read from the scavenging curves. […] The IC50 parameter was also obtained for butylated hydroxyanisol (BHA), butylated hydroxytoluene (BHT) and L-ascorbic acid and compared with those ones calculated for studied compounds.

[8] = Pro-oxidant activity as rate of oxidation of trolox (H2O2 / horseradish peroxide); settings: 100 μM trolox, 50 μM H2O2, pH 7, 25 °C, 272 nm
Experimental: Chlorogenic acid and chlorogenates were also tested for their pro-oxidative effect on trolox oxidation. The radicals of chlorogenic acid and chlorogenates are produced in their reaction with H2O2 catalysed by horse radish peroxide. Then the phenoxyl radicals react with trolox which undergoes oxidation to trolox radicals and then trolox quinones. Whereas the phenoxyl radical are transformed to phenolic compounds. The maximum absorption for trolox quinone is 272 nm. This is a general procedure to study the pro-oxidant activity of phenolic compounds [54].
The pro-oxidant activity of the tested compounds were measured as the rate of oxidation of trolox according to the procedure described by Zeraik et al.. 100 μM trolox, 50 μM H2O2, 0.01 μM horseradish peroxide in phosphate buffer (pH = 7) and tested substances with a concentration from 0.05–0.35 μM were incubated at 25 °C. The measurement were conducted at 272 nm using an Agilent Carry 5000 spectrophotometer.

Row | Compound | MIC (minimal inhibitory concentration) (Candida sp.; MHA plates, 30 °C, 48 h) | FRAP Values C Fe2+ ([6]; Ccompound 5 µM) | EC50 [7] | MIC (minimal inhibitory concentration) (E. coli (Gram−); MHA plates, 37 °C, 24 h) | FRAP Values C Fe2+ ([6]; Ccompound 2.5 µM) | MIC (minimal inhibitory concentration) ([4]; MHA plates, 37 °C, 24 h) | MIC (minimal inhibitory concentration) ([5]; MHA plates, 37 °C, 24 h) | MIC (minimal inhibitory concentration) (Bacillus sp. (Gram+); MHA plates, 37 °C, 24 h) | further results
1 | O=C(/C=C/c1ccc(O)c(O)c1)O[C@@H]1C[C@](O)(C(=O)O)C[C@@H](O)[C@H]1O [5-CQA, 5-O-caffeoylquinic acid, reference compound] | > 14.11 mM |  |  |  |  |  |  |  | MIC (E. coli (Gram−); MHA plates, 37 °C, 24 h): 7.06 mM; MIC (E. coli (Gram−); value in brackets): 2500 µg/mL; IC50 [1]: 33.86 ± 5.55 µg/mL (≈ 95.6 µM); MIC [2]: 8 to 64 µg/mL; MIC [3]: 7.06 mM (≈ 2500 µg/mL); MIC (Candida sp.; 48 h, MHA plates, 30 °C, 48 h): 14.1 mM; MIC (Candida sp.; value in brackets): > 5000 µg/mL; MIC ([4]; MHA plates, 37 °C, 24 h): > 7060 µM; MIC ([4]; value in brackets): > 2500 µg/mL; MIC ([5]; MHA plates, 37 °C, 24 h): > 7060 µM; MIC ([5]; value in brackets): > 2500 µg/mL; MIC (Bacillus sp. (Gram+); MHA plates, 37 °C, 24 h): > 7060 µM; MIC (Bacillus sp. (Gram+); value in brackets): > 2500 µg/mL; IC50 against Hepatitis B virus (Hepatitis B virus): 0.4 µg/mL (≈ 1.13 µM)
2 | CC1(C)S[C@@H]2[C@H](NC(=O)[C@H](N)c3ccccc3)C(=O)N2[C@H]1C(=O)O [Ampicillin, reference compound] |  |  |  |  |  |  |  |  | MIC (E. coli (Gram−); MHA plates, 37 °C, 24 h): 0.43 mM; MIC (Candida sp.; 48 h, MHA plates, 30 °C, 48 h): 0.57 mM; MIC ([4]; MHA plates, 37 °C, 24 h): 570 µM; MIC ([5]; MHA plates, 37 °C, 24 h): 570 µM; MIC (Bacillus sp. (Gram+); MHA plates, 37 °C, 24 h): 570 µM
3 | Cc1cc(C(C)(C)C)c(O)c(C(C)(C)C)c1 [BHT, butylated hydroxytoluene, reference compound] |  | 69.66 ± 5.54 µM | 52.8 ± 2.83 µM |  |  |  |  |  | 
4 | O=C(/C=C/c1ccc(O)c(O)c1)O[C@@H]1C[C@](O)(C(=O)[O-])C[C@@H](O)[C@H]1O.[Cs+] [Cs 5-CQA, caesium chlorogenate] | ˃9.58 mM |  | 5.89 ± 1.57 µM | 4.79 mM | 80.47 ± 5.68 µM | ˃4.79 mM | ˃4.79 mM | ˃4.79 mM | 
5 | O=C(/C=C/c1ccc(O)c(O)c1)O[C@@H]1C[C@](O)(C(=O)[O-])C[C@@H](O)[C@H]1O.[K+] [K 5-CQA, potassium chlorogenate] | 5.96 mM | 132.00 ± 6.07 µM | 5.32 ± 0.49 µM | 5.96 mM | 99.89 ± 7.05 µM | 2.98 mM | ˃5.96 mM | 5.96 mM | time after which the oxidation of trolox finished ([8]; compound 0.25 μM): 40 min; time after which the oxidation of trolox finished ([8]; compound 0.35 μM): 20 min
6 | NC[C@H]1O[C@H](O[C@H]2[C@H](O)[C@@H](O[C@H]3O[C@H](CO)[C@@H](O)[C@H](N)[C@H]3O)[C@H](N)C[C@@H]2N)[C@H](O)[C@@H](O)[C@@H]1O [Kanamycin, reference compound] | 0.41 mM (≈ 199 µg/mL) |  |  | 0.21 mM (≈ 102 µg/mL) |  | 0.21 mM (≈ 102 µg/mL) | 0.21 mM (≈ 102 µg/mL) | 0.21 mM (≈ 102 µg/mL) | 
7 | O=C1O[C@H]([C@@H](O)CO)C(O)=C1O [L-ascorbic acid, reference compound] |  | 81.70 ± 4.23 µM | 10.9 ± 0.53 µM |  |  |  |  |  | 
8 | O=C(/C=C/c1ccc(O)c(O)c1)O[C@@H]1C[C@](O)(C(=O)[O-])C[C@@H](O)[C@H]1O.[Li+] [Li 5-CQA, lithium chlorogenate] | ˃12.91 mM |  | 5.28 ± 0.375 µM | 6.46 mM | 78.93 ± 4.23 µM | ˃6.46 mM | ˃6.46 mM | ˃6.46 mM | time after which the oxidation of trolox finished ([8]; compound 0.35 μM): 20 min
9 | O=C(/C=C/c1ccc(O)c(O)c1)O[C@@H]1C[C@](O)(C(=O)[O-])C[C@@H](O)[C@H]1O.[Na+] [Na 5-CQA, sodium chlorogenate] | ˃12.40 mM | 141.13 ± 5.78 µM | 4.5 ± 0.36 µM | 6.20 mM | 103.08 ± 2.79 µM | ˃6.20 mM | ˃6.20 mM | ˃6.20 mM | time after which the oxidation of trolox finished ([8]; compound 0.35 μM): 20 min
10 | O=C(/C=C/c1ccc(O)c(O)c1)O[C@@H]1C[C@](O)(C(=O)[O-])C[C@@H](O)[C@H]1O.[Rb+] [Rb 5-CQA, rubidium chlorogenate] | 5.27 mM |  | 5.4 ± 0.68 µM | 2.63 mM | 86.70 ± 2.86 µM | 5.27 mM | 2.63 mM | 5.27 mM | time after which the oxidation of trolox finished ([8]; compound 0.25 μM): 40 min
11 | Cc1c(C)c2c(c(C)c1O)CCC(C)(C(=O)O)O2 (stereo not shown) [Trolox, reference compound] |  | 70.85 ± 3.57 µM | 8.25 ± 0.75 µM |  |  |  |  |  | 

Source: article PMC5855685 (International Journal of Molecular Sciences, 2018)
